Source: US20110224133A1 (University of Southern California, priority 2008, published 2011)
Entries after “also recorded” stand apart in the source; their conditions may differ.

Columns and labels:
BCBL1 cells = assay: Protection of TREX-BCBL cells from rapamycin- or zVAD-induced growth suppression and autophagic death; type: cell-based, human; conditions: ectopic expression in BCBL1 cells; 50 nM rapamycin or 50 μM zVAD, 6 days
Procedure: The effect of vFLIP on autophagy was tested in a KSHV-infected BCBL1 cell line.

[1] = test system: HCT116, HaCat, and MEF cells; assay: GFP-LC3 autophagy assay in HCT116, HaCat and MEF cells; type: cell-based; conditions: 2 μM rapamycin 3 hr
Atg3-LC3 interaction [2] = biological target: T1, Atg3-LC3 interaction (Homo sapiens, UniProt Q9NT62); assay: Competition with LC3 for Atg3 binding; conditions: HEK293T cells, GST-Atg3 and GFP-LC3
T1 construct: expressed in transfected cells; host or cells: HEK293T
Source text: (§1) For panel A, at 48 hr post-transfection with Flag-vFLIP and/or GFP-Atg3 (left) or Flag-vFLIP and/or GST-Atg3 (middle), HEK293T cells were used for immunoprecipitation with αFlag, αGFP, or GST pulldown, followed by immunoblotting with the indicated antibodies. For panel A (right), HEK293T cells transfected with FIag-vFLIP were used for immunoprecipitation with mouse IgG or αFlag, followed by immunoblotting with αAtg3. Panel B (top) depicts a schematic diagram of human Atg3. N,N-terminus; FR, flexible region; C, C-terminus. […] Panel C (top) depicts a schematic diagram of KSHV vFLIP. […] For panel F, NIH3T3-Vector and NIH3T3-vFLIP cells were treated with 2 nM rapamycin for 12 hr and used for IP with αAtg3, followed by immunoblotting with αLC3. In panels A-F, whole cell lysates (WCLs) were used for immunoblotting with the indicated antibodies to show expression.
(§2) Due to identical Atg3 binding patterns seen in vFLIP and LC3, the ability of vFLIP to directly compete with LC3 for Atg3 binding was tested. HEK293T cells were transfected with GST-Atg3 and GFP-LC3 along with increasing amount of Flag-vFLIP. At 48 hr post-transfection, GST pulldown was performed as described above, followed by immunoblotting with αGFP or αFlag.

Atg3-LC3 interaction [3] = assay: Competition with LC3 for Atg3 binding; conditions: NIH3T3 cells, normal conditions; weakly recovered with 2 nM rapamycin 12 hr
Source text: as §1, §2

NIH3T3 cells [4] = assay: GFP-LC3 autophagy assay in NIH3T3 cells expressing FLIP; type: cell-based, murine; conditions: ectopic expression in NIH3T3 cells, Hank's solution 4 hr or 2 μM rapamycin 3 hr
TREX-BCBL cells = assay: Autophagy and cell death in TREX-BCBL-vFLIP cells; conditions: for suppression of rapamycin-induced autophagy (and cell death) in TREX-BCBL cells: doxycycline-induced vFLIP, 2 μM rapamycin 12 hr
Procedure: Subsequently, autophagy was quantified as means (±SD) of the combined results from three independent experiments. 2 μM rapamycin treatment was included as a control. For panels B (right), TREX-BCBL-Vector and TREX-BCBL-vFLIP cells were treated with Doxycycline for 24 hr, followed by incubation with 0, 30, or 50 μM of TAT only, the K-α2, or the K-α4 peptide (top), or TAT only, the C-α2, or the C-α4 peptide (bottom) for an additional 12 hr and a BC Z2 CS analyzer used to determine cell death (as a percentage). […] For panel E, TREX-BCBL-Vector and TREX-BCBL-vFLIP cells were treated with the K-α and the K-α4 (30 μM each) peptide for 12 hr, followed by immunoblotting with αLC3 and αactin. […] For panel G, various human lymphoma cells were treated with 0, 30, or 50 μM of the K-α2 peptide (left) or the K-α4 peptide (right) for 12 hr and cell death (as a percentage) was determined using a BC Z2 CS Analyzer. For panel H, KSHV-infected BCBL1 cells were incubated with various combinations of rapamycin (25 nM), the K-α2 peptide (20 μM), and the K-α4 peptide (20 μM). A BC Z2 CS Analyzer was used to determine cell numbers (left) and cell death at 6 days (right).

NIH3T3 cells [5] = assay: TNF-α/CHX-induced apoptosis, PI staining and flow cytometry; type: cell-based, murine; conditions: 12 hr
Procedure: (§3) In panel A, propidium iodide (PI) staining and flow cytometry analysis were performed to determine apoptosis levels. In panels B-C, NIH3T3 cells containing vector, KSHV vFLIP, or its mutants were transfected with an NF-κB luciferase reporter construct and a control renilla luciferase plasmid, pRL-SV40. At 48 hr post-transfection, luciferase activity was measured with a luminometer using a dual luciferase assay kit and normalized with renilla luciferase activity to determine transfection efficiency (B). […] At 48 hr post-transfection, luciferase activity was measured as described above (E).
(§4) Propidium iodide (PI) staining and flow cytometry analysis were performed to determine apoptosis levels (FIG. 3A). Alternatively, NIH3T3 cells containing vector, KSHV vFLIP, or its mutants were transfected with an NF-κB-luciferase reporter construct and a control renilla luciferase plasmid, pRL-SV40 (Promega). At 48 hr post-transfection, luciferase activity was measured with a luminometer using a dual luciferase assay kit (Promega) and normalized with renilla luciferase activity to determine transfection efficiency (FIG. 3B).

NF-κB = NF-κB luciferase reporter assay in NIH3T3 cells; type: cell-based, murine; conditions: 48 hr post-transfection
Procedure: as §3, §4

Atg3 [6] = biological target: T2, Atg3 (Homo sapiens, UniProt Q9NT62); assay: Co-immunoprecipitation and GST pulldown with Atg3 in HEK293T cells; type: binding; conditions: HEK293T cells, 48 hr post-transfection
T2 construct: expressed in transfected cells; host or cells: HEK293T
Source text: as §1
(§5) WCLs were used for immunoblotting with αFlag or αGST. […] WCLs were used for immunoblotting with αFlag or αGST.
(§6) The ability of FLIP to bind to Atg3 was evaluated by co-immunoprecipitation assay. HEK293T cells were transfected with Flag-vFLIP and/or GFP-Atg3 or Flag-vFLIP and/or GST-Atg3, and at 48 hr post-transfection, cells were harvested and lysed in an NP40 buffer supplemented with complete protease inhibitor cocktail (Roche). After pre-clearing with protein A/G agarose beads for 1 hr at 4° C., whole-cell lysates were used for immunoprecipitation with αFlag, αGFP, or GST. Generally, 1-4 μg of the antibody was added to 1 ml of the cell lysate and incubated at 4° C. for 8 to 12 hr. The immunoprecipitates were then washed extensively with a lysis buffer and eluted by boiling them with an SDS loading buffer for 5 min. Following immunoprecipitation, samples were treated to immunoblot using αAtg3 (1:500) (Novus).
(§7) The overall structure of yeast Atg3 has a unique hammer-like shape with the N-terminal and C-terminal regions discretely responsible for Atg7 and Atg8 (equivalent to mammalian LC3) binding, respectively. (Yamada et al. (2007) J. Biol. Chem. 282:8036-8043). Based on the structure of yeast Atg3, human Atg3 deletion mutants fused with a GST mammalian expression vector were constructed: GST-Atg31-93, GST-Atg3193-268, GST-Atg3268-315, and GST-Atg3193-315.

Atg3 [7] = assay: as above; type: binding, human; conditions: GST-Atg3 deletion mutants, GST pulldown
Source text: as §1, §5, §6, §7

LC3-II = assay: Anti-LC3 immunoblotting of starved NIH3T3 cells expressing FLIP; type: cell-based, murine; conditions: starvation, Hank's solution 4 hr
Procedure: The arrows indicate autophagosomes.
During autophagy, an LC3 precursor (LC3-I) undergoes cleavage and lipidation to yield its processed form (LC3-II) (Mizushima et al. (2008) Nature 451:1069-1075). Immunoblotting was performed with an antibody against LC3 to further measure autophagic activity. […] Polypeptides were resolved by SDS-polyacrylamide gel electrophoresis (PAGE) and transferred to a PVDF membrane (Bio-Rad). […] The proteins were visualized by a chemiluminescence reagent (Pierce) and detected by a Fuji Phosphor Imager. […] Finally, the ability of FLIP to block autophagy in multiple cell types was evaluated.

T1 sequence (Q9NT62 whole entry): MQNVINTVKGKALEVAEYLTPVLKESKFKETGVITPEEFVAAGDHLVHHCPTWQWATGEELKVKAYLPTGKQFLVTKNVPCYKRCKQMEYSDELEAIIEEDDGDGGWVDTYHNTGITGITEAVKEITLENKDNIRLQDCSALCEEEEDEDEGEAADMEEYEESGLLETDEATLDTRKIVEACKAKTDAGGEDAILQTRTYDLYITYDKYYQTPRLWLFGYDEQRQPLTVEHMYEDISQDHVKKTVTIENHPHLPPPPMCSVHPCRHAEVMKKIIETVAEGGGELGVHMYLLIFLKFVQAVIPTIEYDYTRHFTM
T2 sequence (Q9NT62 whole entry): as above

Substance: KSHV vFLIP: viral FLIP of Kaposi's sarcoma-associated herpes virus, full-length protein
- protection from rapamycin- or zVAD-induced growth suppression and autophagic death (BCBL1 cells): almost completely blocked rapamycin- or zVAD-induced growth suppression and autophagic death
- blocking of autophagy in several cell types [1]: efficiently blocked autophagy in a number of cell types
- Atg3-LC3 interaction with increasing vFLIP expression (Atg3-LC3 interaction [2]): marked decrease of Atg3-LC3 interaction
- endogenous Atg3 and LC3 interaction (Atg3-LC3 interaction [3]): dramatic reduction of endogenous Atg3 and LC3 interaction
- suppression of starvation- and rapamycin-induced autophagy (GFP-LC3 puncta) (NIH3T3 cells [4]): strongly suppressed starvation- and rapamycin-induced autophagy; also recorded: anti-autophagy
- suppression of starvation- and rapamycin-induced autophagy (GFP-LC3 puncta) (NIH3T3 cells [4]; listed as vFLIP): effectively suppressed starvation- and rapamycin-induced autophagy
- inhibition of peptide-induced autophagy and cell death (TREX-BCBL cells; TREX-BCBL-vFLIP cells treated with FLIP peptides): minimal
- suppression of rapamycin-induced autophagy (and cell death) in TREX-BCBL cells (TREX-BCBL cells): readily blocked rapamycin-induced autophagy and cell death
- suppression of rapamycin-induced autophagy (and cell death) in TREX-BCBL cells (TREX-BCBL cells; listed as vFLIP): extensively suppressed rapamycin-induced autophagy
- blocking of TNFα-induced apoptosis (NIH3T3 cells [5]): anti-apoptosis
- NF-κB activation (NF-κB): carried out NF-κB activation
- Atg3 binding (Atg3 [6]): strongly interacted with endogenously and exogenously expressed Atg3
- Atg3 regions bound (Atg3 deletion mutants) (Atg3 [7]): independently bound either the aa193-268 or aa268-315 region of the C-terminal of Atg3
- processed LC3-II (LC3-II): little or no processed LC3-II
